Assay results as given in patent publication US20160297833A1, “THIENOPYRIMIDINES AS MKNK1 AND MKNK2 INHIBITORS” (BAYER PHARMA AKTIENGESELLSCHAFT, priority 2013, published 2016).
pIC50: −log10 of the molar value.

biological target: T1, human full-length MKNK1 (Homo sapiens, UniProt Q9BUB5, T385D); experiment: MKNK1 kinase high ATP assay (TR-FRET); assay type: biochemical; conditions: not given
T1 construct: GST (N); purchased Carna Biosciences 02-145; host or cells: insect cells (baculovirus expression system)
T1 sequence (Q9BUB5 1-424 isoform Q9BUB5-2 T344D): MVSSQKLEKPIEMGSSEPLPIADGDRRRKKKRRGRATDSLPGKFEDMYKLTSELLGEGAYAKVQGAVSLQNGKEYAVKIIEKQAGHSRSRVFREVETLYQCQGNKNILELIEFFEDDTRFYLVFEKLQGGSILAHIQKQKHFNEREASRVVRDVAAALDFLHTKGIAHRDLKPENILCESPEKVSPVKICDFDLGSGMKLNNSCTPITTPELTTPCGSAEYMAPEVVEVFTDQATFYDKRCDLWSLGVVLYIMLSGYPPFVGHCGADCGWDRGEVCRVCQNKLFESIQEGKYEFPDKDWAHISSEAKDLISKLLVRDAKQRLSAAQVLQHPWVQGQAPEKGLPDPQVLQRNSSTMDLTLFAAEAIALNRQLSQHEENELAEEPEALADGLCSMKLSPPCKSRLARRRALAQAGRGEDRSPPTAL
Description: MKNK1 Kinase High ATP Assay
MKNK1-inhibitory activity at high ATP of compounds of the present invention after their preincubation with MKNK1 was quantified employing the TR-FRET-based MKNK1 high ATP assay as described in the following paragraphs.
As substrate for the kinase reaction the biotinylated peptide biotin-Ahx-[…] (C-terminus in amide form) was used, which can be purchased e.g. from the company Biosyntan (Berlin-Buch, Germany).
For the assay 50 nL of a 100 fold concentrated solution of the test compound in DMSO was pipetted into a black low volume 384 well microtiter plate (Greiner Bio-One, Frickenhausen, Germany), 2 μL of a solution of MKNK1 in aqueous assay buffer [50 mM HEPES pH 7.5, 5 mM MgCl2, 1.0 mM dithiothreitol, 0.005% (v/v) Nonidet-P40 (Sigma)] was added and the mixture was incubated for 15 min at 22° C. to allow pre-binding of the test compounds to the enzyme before the start of the kinase reaction. Then the kinase reaction was started by the addition of 3 μL of a solution of adenosine-tri-phosphate (ATP, 3.3 mM=>final conc. in the 5 μL assay volume is 2 mM) and substrate (0.1 μM=>final conc. in the 5 μL assay volume is 0.06 μM) in assay buffer and the resulting mixture was incubated for a reaction time of 30 min at 22° C. The concentration of MKNK1 was adjusted depending of the activity of the enzyme lot and was chosen appropriate to have the assay in the linear range, typical concentrations were in the range of 0.003 μg/mL. The reaction was stopped by the addition of 5 μL of a solution of TR-FRET detection reagents (5 nM streptavidine-XL665 [Cisbio Bioassays, Codolet, France] and 1 nM anti-ribosomal protein S6 (pSer236)-antibody from Invitrogen [#44921G] and 1 nM LANCE EU-W1024 labeled ProteinG [Perkin-Elmer, product no. AD0071]) in an aqueous EDTA-solution (100 mM EDTA, 0.1% (w/v) bovine serum albumin in 50 mM HEPES pH 7.5).
The resulting mixture was incubated for 1 h at 22° C. to allow the formation of complex between the phosphorylated biotinylated peptide and the detection reagents. Subsequently the amount of phosphorylated substrate was evaluated by measurement of the resonance energy transfer from the Eu-chelate to the streptavidine-XL. Therefore, the fluorescence emissions at 620 nm and 665 nm after excitation at 350 nm were measured in a TR-FRET reader, e.g. a Rubystar (BMG Labtechnologies, Offenburg, Germany) or a Viewlux (Perkin-Elmer). The ratio of the emissions at 665 nm and at 622 nm was taken as the measure for the amount of phosphorylated substrate.

| SMILES | pIC50 |
| --- | --- |
| CCOc1cc2[nH]ncc2cc1Nc1ncnc2sc3c(c12)CC[C@H](C(=O)N1CCC(=O)CC1)C3 [Example 68, 1-({(7S)-4-[(6-Ethoxy-1H-indazol-5-yl)amino]-5,6,7,8-tetrahydro[1]benzothieno[2,3-d]pyrimidin-7-yl}carbonyl)piperidin-4-one] | 9.52 |

same assay, conditions: Table 1; MKNK1 kinase high ATP assay, 2 mM ATP; read-out: MKNK1 IC50

| SMILES | pIC50 |
| --- | --- |
| COc1cc2[nH]ncc2cc1Nc1ncnc2sc3c(c12)CC[C@H](C(=O)N1CCN(C)CC1)C3 [Example 48, {(7S)-4-[(6-Methoxy-1H-indazol-5-yl)amino]-5,6,7,8-tetrahydro[1]benzothieno[2,3-d]pyrimidin-7-yl}(4-methylpiperazin-1-yl)methanone] | 9.40 |
| COc1cc2[nH]ncc2cc1Nc1ncnc2sc3c(c12)CC[C@H](C(=O)N1CCN(C(=O)N(C)C)CC1)C3 [Example 49, 4-({(7S)-4-[(6-Methoxy-1H-indazol-5-yl)amino]-5,6,7,8-tetrahydro[1]benzothieno[2,3-d]pyrimidin-7-yl}carbonyl)-N,N-dimethylpiperazine-1-carboxamide] | 10.00 |
| COc1cc2[nH]ncc2cc1Nc1ncnc2sc3c(c12)CC[C@H](C(=O)N1CCN(CCN(C)C)CC1)C3 [Example 50, {4-[2-(Dimethylamino)ethyl]piperazin-1-yl}{(7S)-4-[(6-methoxy-1H-indazol-5-yl)amino]-5,6,7,8-tetrahydro[1]benzothieno[2,3-d]pyrimidin-7-yl}methanone] | 10.00 |
| COc1cc2[nH]ncc2cc1Nc1ncnc2sc3c(c12)CC[C@H](C(=O)N(C)CCN(C)C)C3 [Example 51, (7S)—N-[2-(Dimethylamino)ethyl]-4-[(6-methoxy-1H-indazol-5-yl)amino]-N-methyl-5,6,7,8-tetrahydro[1]benzothieno[2,3-d]pyrimidine-7-carboxamide] | 10.00 |
| COc1cc2[nH]ncc2cc1Nc1ncnc2sc3c(c12)CC[C@H](C(=O)N(C)CC(=O)N(C)C)C3 [Example 52, (7S)—N-[2-(Dimethylamino)-2-oxoethyl]-4-[(6-methoxy-1H-indazol-5-yl)amino]-N-methyl-5,6,7,8-tetrahydro[1]benzothieno[2,3-d]pyrimidine-7-carboxamide] | 9.70 |
| CCN(CCN(C)C)C(=O)[C@H]1CCc2c(sc3ncnc(Nc4cc5cn[nH]c5cc4OC)c23)C1 [Example 53, (7S)—N-[2-(Dimethylamino)ethyl]-N-ethyl-4-[(6-methoxy-1H-indazol-5-yl)amino]-5,6,7,8-tetrahydro[1]benzothieno[2,3-d]pyrimidine-7-carboxamide] | 9.52 |
| COc1cc2[nH]ncc2cc1Nc1ncnc2sc3c(c12)CC[C@H](C(=O)N(C)CCCN(C)C)C3 [Example 54, (7S)—N-[3-(Dimethylamino)propyl]-4-[(6-methoxy-1H-indazol-5-yl)amino]-N-methyl-5,6,7,8-tetrahydro[1]benzothieno[2,3-d]pyrimidine-7-carboxamide] | 9.40 |
| COc1cc2[nH]ncc2cc1Nc1ncnc2sc3c(c12)CC[C@H](C(=O)N(C)CCC(=O)N(C)C)C3 [Example 55, (7S)—N-[3-(Dimethylamino)-3-oxopropyl]-4-[(6-methoxy-1H-indazol-5-yl)amino]-N-methyl-5,6,7,8-tetrahydro[1]benzothieno[2,3-d]pyrimidine-7-carboxamide] | 10.00 |
| COc1cc2[nH]ncc2cc1Nc1ncnc2sc3c(c12)CC[C@H](C(=O)N(CCC(=O)N(C)C)C1CC1)C3 [Example 56, (7S)—N-Cyclopropyl-N-[3-(dimethylamino)-3-oxopropyl]-4-[(6-methoxy-1H-indazol-5-yl)amino]-5,6,7,8-tetrahydro[1]benzothieno[2,3-d]pyrimidine-7-carboxamide] | 9.52 |
| COc1cc2[nH]ncc2cc1Nc1ncnc2sc3c(c12)CC[C@H](C(=O)N(C)CCN(C)CCN(C)C)C3 [Example 57, (7S)—N-(2-{[2-(Dimethylamino)ethyl](methyl)amino}ethyl)-4-[(6-methoxy-1H-indazol-5-yl)amino]-N-methyl-5,6,7,8-tetrahydro[1]benzothieno[2,3-d]pyrimidine-7-carboxamide] | 9.15 |
| COc1cc2[nH]ncc2cc1Nc1ncnc2sc3c(c12)CC[C@H](C(=O)N(CCO)CCCN(C)C)C3 [Example 58, (7S)—N-[3-(Dimethylamino)propyl]-N-(2-hydroxyethyl)-4-[(6-methoxy-1H-indazol-5-yl)amino]-5,6,7,8-tetrahydro[1]benzothieno[2,3-d]pyrimidine-7-carboxamide] | 9.52 |
| COc1cc2[nH]ncc2cc1Nc1ncnc2sc3c(c12)CC[C@H](C(=O)N(CCCN(C)C)CCCN(C)C)C3 [Example 59, (7S)—N,N-bis[3-(Dimethylamino)propyl]-4-[(6-methoxy-1H-indazol-5-yl)amino]-5,6,7,8-tetrahydro[1]benzothieno[2,3-d]pyrimidine-7-carboxamide] | 9.70 |
| COc1cc2[nH]ncc2cc1Nc1ncnc2sc3c(c12)CC[C@H](C(=O)N(CCN(C)C)Cc1ccccn1)C3 [Example 60, (7S)—N-[2-(Dimethylamino)ethyl]-4-[(6-methoxy-1H-indazol-5-yl)amino]-N-(pyridin-2-ylmethyl)-5,6,7,8-tetrahydro[1]benzothieno[2,3-d]pyrimidine-7-carboxamide] | 9.70 |
| COc1cc2[nH]ncc2cc1Nc1ncnc2sc3c(c12)CC[C@H](C(=O)N(CCN(C)C)Cc1cccnc1)C3 [Example 61, (7S)—N-[2-(Dimethylamino)ethyl]-4-[(6-methoxy-1H-indazol-5-yl)amino]-N-(pyridin-3-ylmethyl)-5,6,7,8-tetrahydro[1]benzothieno[2,3-d]pyrimidine-7-carboxamide] | 10.00 |
| COc1cc2[nH]ncc2cc1Nc1ncnc2sc3c(c12)CC[C@H](C(=O)N(CCN(C)C)Cc1ccncc1)C3 [Example 62, (7S)—N-[2-(Dimethylamino)ethyl]-4-[(6-methoxy-1H-indazol-5-yl)amino]-N-(pyridin-4-ylmethyl)-5,6,7,8-tetrahydro[1]benzothieno[2,3-d]pyrimidine-7-carboxamide] | 10.00 |
| COc1cc2[nH]ncc2cc1Nc1ncnc2sc3c(c12)CC[C@H](C(=O)N(CCCN(C)C)Cc1ccccc1)C3 [Example 63, (7S)—N-Benzyl-N-[3-(dimethylamino)propyl]-4-[(6-methoxy-1H-indazol-5-yl)amino]-5,6,7,8-tetrahydro[1]benzothieno[2,3-d]pyrimidine-7-carboxamide] | 9.70 |
| COc1cc2[nH]ncc2cc1Nc1ncnc2sc3c(c12)CC[C@H](C(=O)N1C(=O)O[C@H](c2ccccc2)[C@@H]1C)C3 [Example 64, (4S,5R)-3-({(7S)-4-[(6-Methoxy-1H-indazol-5-yl)amino]-5,6,7,8-tetrahydro[1]benzothieno[2,3-d]pyrimidin-7-yl}carbonyl)-4-methyl-5-phenyl-1,3-oxazolidin-2-one] | 7.98 |
| CCOc1cc2[nH]ncc2cc1Nc1ncnc2sc3c(c12)CC[C@H](C(=O)N(C)CC(F)F)C3 [Example 65, (7S)—N-(2,2-Difluoroethyl)-4-[(6-ethoxy-1H-indazol-5-yl)amino]-N-methyl-5,6,7,8-tetrahydro[1]benzothieno[2,3-d]pyrimidine-7-carboxamide] | 9.22 |
| CCOc1cc2[nH]ncc2cc1Nc1ncnc2sc3c(c12)CC[C@H](C(=O)N(C)CCC(F)(F)F)C3 [Example 66, (7S)-4-[(6-Ethoxy-1H-indazol-5-yl)amino]-N-methyl-N-(3,3,3-trifluoropropyl)-5,6,7,8-tetrahydro[1]benzothieno[2,3-d]pyrimidine-7-carboxamide] | 9.40 |
| CCOc1cc2[nH]ncc2cc1Nc1ncnc2sc3c(c12)CC[C@H](C(=O)N1CCCC1)C3 [Example 67, {(7S)-4-[(6-Ethoxy-1H-indazol-5-yl)amino]-5,6,7,8-tetrahydro[1]benzothieno[2,3-d]pyrimidin-7-yl}(pyrrolidin-1-yl)methanone] | 9.52 |

same assay, conditions: Table 2; ratio of the IC50-value of an R-enantiomer and its corresponding S-enantiomer

| SMILES | Activity-Ratio MKNK1 |
| --- | --- |
| CCOc1cc2[nH]ncc2cc1Nc1ncnc2sc3c(c12)CC[C@H](C(=O)N1CCC(=O)CC1)C3 [Example 68, 1-({(7S)-4-[(6-Ethoxy-1H-indazol-5-yl)amino]-5,6,7,8-tetrahydro[1]benzothieno[2,3-d]pyrimidin-7-yl}carbonyl)piperidin-4-one] | 9.0 |

same assay, conditions: Table 3; example numbers of WO2013/174744(A1), not of this patent; pure enantiomer from chiral HPLC, absolute configuration at amide 'R or S'; read-out: MKNK1 IC50

| SMILES | pIC50 |
| --- | --- |
| CCOc1cc2[nH]ncc2cc1Nc1ncnc2sc3c(c12)CC[C@H](C(=O)N(C)CCC(F)(F)F)C3 [Example 66, (7S)-4-[(6-Ethoxy-1H-indazol-5-yl)amino]-N-methyl-N-(3,3,3-trifluoropropyl)-5,6,7,8-tetrahydro[1]benzothieno[2,3-d]pyrimidine-7-carboxamide] | 8.77 |

same assay, conditions: Table 3; example numbers of WO2013/174744(A1), not of this patent; pure enantiomer from chiral HPLC, absolute configuration at amide 'S or R'; read-out: MKNK1 IC50

| SMILES | pIC50 |
| --- | --- |
| CCOc1cc2[nH]ncc2cc1Nc1ncnc2sc3c(c12)CC[C@H](C(=O)N(C)CCC(F)(F)F)C3 [Example 66, (7S)-4-[(6-Ethoxy-1H-indazol-5-yl)amino]-N-methyl-N-(3,3,3-trifluoropropyl)-5,6,7,8-tetrahydro[1]benzothieno[2,3-d]pyrimidine-7-carboxamide] | 9.05 |

same assay, conditions: Table 3; example numbers of WO2013/174744(A1); ratio of the IC50 values of the two enantiomers

| SMILES | Activity Ratio MKNK1 |
| --- | --- |
| CCOc1cc2[nH]ncc2cc1Nc1ncnc2sc3c(c12)CC[C@H](C(=O)N(C)CCC(F)(F)F)C3 [Example 66, (7S)-4-[(6-Ethoxy-1H-indazol-5-yl)amino]-N-methyl-N-(3,3,3-trifluoropropyl)-5,6,7,8-tetrahydro[1]benzothieno[2,3-d]pyrimidine-7-carboxamide] | 1.9 |
